Six compounds from ChEMBL document CHEMBL4811292, “Discovery of novel β-turn mimetic-based peptides as novel quorum sensing inhibitors of gram-negative bacteria” (Bioorg Med Chem Lett, 2021) can be followed below.

For experiment [1], the system named is Pseudomonas aeruginosa. Nature of the experiment: Antibacterial activity against Pseudomonas aeruginosa assessed as inhibition of cell growth. The experiment is classed as functional.
Experiment [2] in a line: Inhibition of quorum sensing system in Chromobacterium violaceum ATCC 31532 assessed as reduction in violacein production at 100 uM.
Experiment [3] in a line: Inhibition of quorum sensing system lasB in Pseudomonas aeruginosa transfected with lasB-gfp assessed as reduction of GFP production.
The nature of experiment [4]: Inhibition of quorum sensing system in Chromobacterium violaceum ATCC 31532 assessed as reduction in violacein production at <100 uM. As to conditions: dose microM <100.
Experiment [5] relates to Staphylococcus epidermidis. The experiment in a line: Inhibition of quorum sensing system in Staphylococcus epidermidis.
Experiment [6] has as its system Pseudomonas aeruginosa. Nature of the experiment: Inhibition of quorum sensing system lasB in Pseudomonas aeruginosa transfected with lasB-gfp assessed as reduction of GFP production at 5 uM.
Experiment [7] relates to Pseudomonas aeruginosa. The experiment in a line: Potency index, ratio of 4NPO IC50 to test compound IC50 for inhibition of quorum sensing system lasB in Pseudomonas aeruginosa transfected with lasB-gfp.
For experiment [8], the system named is Pseudomonas aeruginosa. The experiment in a line: Antibiofilm activity against Pseudomonas aeruginosa PA14 assessed as inhibition of biofilm formation at 15 to 50 uM measured after 48 hrs relative to control. The experiment is classed as functional. As to conditions: dose 15-50 µM.
The subject of experiment [9] is Pseudomonas aeruginosa. The experiment in a line: Antibiofilm activity against Pseudomonas aeruginosa PA14 assessed as inhibition of biofilm formation at 15 to 50 uM measured after 48 hrs. The experiment is classed as functional, organism-based. The conditions noted are these: dose 15-50 µM.
Experiment [10] deals with Pseudomonas aeruginosa. The experiment in a line: Inhibition of quorum sensing system lasB in Pseudomonas aeruginosa transfected with lasB-gfp assessed as reduction of GFP production at 10 to 15 uM. The conditions noted are these: dose 10-15 µM.
For experiment [11], the system named is Pseudomonas aeruginosa. The experiment in a line: Antibiofilm activity against Pseudomonas aeruginosa PA14 assessed as inhibition of biofilm formation at 50 uM measured after 48 hrs relative to control. Type of experiment: functional.
The test system of experiment [12] is Pseudomonas aeruginosa. Nature of the experiment: Inhibition of quorum sensing system lasB in Pseudomonas aeruginosa transfected with lasB-gfp assessed as reduction of GFP production at 10 uM.

Converted amounts (≈) assume the structure as drawn. The source made the active and inactive calls. No cut-off for these calls is given here. A value given as a limit tells only on which side of the number the result lay.

As a reminder, the MIC is the lowest concentration that inhibits growth of the organism. As a reminder, the inhibition is the percentage by which the read-out fell short of the control. For orientation: IC50 means the concentration that inhibits the measured activity by half. In the case of `CCCCN1C[C@H]2N(C(=O)CN(c3ccc(C)cc3)N2C(=O)NCc2ccccc2)[C@@H](C(C)C)C1=O`, the MIC in the experiment on Pseudomonas aeruginosa [1] is > 150 µM. Also, in experiment [2], the inhibition is 21%. For the same compound, the IC50 entry in experiment [3] is recorded as “Not Active”. In addition, the inhibition result in experiment [4] and in experiment [5] was “inactive” throughout.

In the case of `C=CCNC(=O)N1[C@H]2CN(Cc3ccccc3)C(=O)[C@H](Cc3ccccc3)N2C(=O)CN1c1ccc(C)cc1`, the MIC in the experiment with Pseudomonas aeruginosa [1] was > 100 µM. In addition, in experiment [2], the inhibition amounted to 62%. For the same compound, the IC50 in experiment [3] (read-out: IC50) worked out at 4 µM. Besides, the inhibition result with Pseudomonas aeruginosa [6] is “Active”. Further, the inhibition entry in experiment [4] and in [5] was “inactive” throughout. For the same compound, the Ratio IC50 with Pseudomonas aeruginosa [7] came out at 2. Further, in the experiment with Pseudomonas aeruginosa [8], the “inhibition (INH)” value came out at 80%.

Turning to `CCCCN1C[C@H]2N(C(=O)CN(c3ccc(C)cc3)N2C(=O)NCc2ccccc2)[C@@H](Cc2ccc(Cl)cc2)C1=O`, the minimum inhibitory concentration (MIC) with Pseudomonas aeruginosa [1] came out at 100 µM (≈ 57.4 µg/mL). Besides, in [2], the inhibition is 12%. Besides, the half-inhibitory concentration (IC50) entry in [3] is recorded as “Not Active”. In addition, the inhibition entry in experiment [4] and in [5] was “inactive” each time.

Turning to `O=[N+]([O-])c1cc[n+]([O-])cc1`, in experiment [2], the inhibition was determined as 66%. Besides, in experiment [3] (read-out: IC50), the IC50 was 27 µM. In addition, the inhibition entry in the experiment on Pseudomonas aeruginosa [9] is “Active”.

Consider `Cc1ccc(N2CC(=O)N3[C@@H](CC(C)C)C(=O)N(Cc4ccco4)C[C@@H]3N2C(=O)NCc2ccccc2)cc1`, for which, in the experiment on Pseudomonas aeruginosa [10], the inhibition entry was “Active”. In addition, the MIC with Pseudomonas aeruginosa [1] was > 150 µM. For the same compound, the inhibition in [2] was 52%. Moreover, in [3] (read-out: IC50), the IC50 is 12 µM. Besides, the inhibition result in experiment [4] and in [5] was “inactive” throughout. Besides, the inhibition at 50 µM in the experiment on Pseudomonas aeruginosa [11] was 80%. In addition, in the experiment on Pseudomonas aeruginosa [7], the Ratio IC50 is 2.

Consider `C=CCNC(=O)N1[C@H]2CN(Cc3ccccc3)C(=O)[C@H](C(C)CC)N2C(=O)CN1c1ccc(C)cc1` (some centres not stated), for which the inhibition entry with Pseudomonas aeruginosa [12] was “Active”. For the same compound, the MIC in the experiment on Pseudomonas aeruginosa [1] was > 100 µM. In addition, in experiment [2], the inhibition stood at 49%. For the same compound, in [3] (read-out: IC50), the IC50 worked out at 7 µM. Moreover, the inhibition result in experiment [4] and in experiment [5] was “inactive” in each case. Moreover, the Ratio IC50 with Pseudomonas aeruginosa [7] was 2. Further, the “inhibition (INH)” value in the experiment with Pseudomonas aeruginosa [8] is given as 20%.
